Measured values: patent publication US8940863B2, “Selective anticancer chimeric peptides which bind neuropilin receptor” (Stella Pharma Corporation, priority 2008, dated 2015)
Entries after “also recorded” stand apart in the source; their conditions may differ. Like-named read-outs stand apart in the source and are kept apart here. Non-standard residues stand in square brackets, D forms with d. Residues, ends and D or L forms follow the SMILES beside them. No end group written: not given here.

Legend:
[1] = system: U251
[2] = system: HEK293; conditions: HEK293 normal cells; 72 hours; mean (Table 2)
[3] = system: human breast cancer cell line MDA-MB-231; assay: Antitumor effect in MDA-MB-231 bearing mouse models; assay type: in vivo, athymic nude mice; conditions: 1 mg/kg intravenously injected; from day 5
[4] = system: BT-20; assay: Annexin V assay and caspase assay; assay type: cell-based, human; conditions: 5 μM, two hours
Experimental: BT-20 cells were treated for 2 hours at 37° C. with or without EB-lytic chimeric peptide at 5 μM. For determination of caspase activation or Annexin V-positive expression, peptide-treated cultures were simultaneously analyzed for caspase activity and propidium iodide (PI) staining using a carboxyfluorescein FLICA caspase-3&7 assay (Immunochemistry Technologies, Bloomington, Minn.), or, alternatively, for Annexin V labeling and PI staining by multiparametric flow cytometry. Furthermore, in accordance with the manufacturer's instructions, using a confocal laser scanning microscope, terminal deoxynucleotidyl transferase-dUTP nick end labeling (TUNEL) assay was conducted by MEBSTAIN Apoptosis Kit Direct (MBL).
In accordance with the method of Example 1, Annexin V assay and caspase assay were performed. […] For determination of caspase activation or Annexin V-positive expression, peptide-treated cultures were simultaneously analyzed for caspase activity and propidium iodide (PI) staining using a carboxyfluorescein FLICA caspase-3&7 assay (Immunochemistry Technologies, Bloomington, Minn.), or, alternatively, for Annexin V labeling and PI staining by multiparametric flow cytometry. The results are shown in FIG. 20A (Annexin V) and FIG. 20B (caspase activity)

[5] = system: H322 lung cancer cells; assay: Membrane permeabilization (calcein, confocal); assay type: cell-based, human; conditions: 10 μM; for percentage of influx of medium to the cells over time (words): compared with EB-Lytic peptide
Experimental: Calcein, a soluble fluorescence molecule, was added to H322 lung cancer cells in a glass-bottomed dish at a final concentration of 2 μM. […] At 0 minute, two minutes, five minutes, 10 minutes and 20 minutes after addition of peptide, using Olympus FV1000 confocal laser scanning microscope (Olympus), confocal images were taken.

[6] = system: BT-20
[7] = system: MRC-5; assay: Cell viability assay (WST-8); conditions: MRC-5 normal cells; 72 hours; mean (Table 2)
[8] = system: H322
[9] = system: LNCaP
[10] = system: SU.86.86
[11] = system: BxPC-3
[12] = system: CFPAC-1; conditions: 48 h
[13] = system: PE cell (pancreatic epidermal); assay: Cell viability assay (WST-8); assay type: cell-based
Excerpt: (§1) Correlation between IC50 values was observed.

[14] = system: SK-BR-3; conditions: 48 h
[15] = system: T47D; assay: Cell viability assay (WST-8); assay type: cell-based, human; conditions: 48 h
Excerpt: as §1

[16] = system: MDA-MB-231
[17] = system: HuCCT-1; conditions: 48 h
[18] = system: HEK293T; assay type: cell-based
[19] = system: Panc-1; conditions: 48 h
[20] = system: human recombinant IL13R protein; assay: BIACORE binding to IL13R
[21] = system: HN-12; assay: Cell viability assay (WST-8); assay type: cell-based, human; conditions: 72 hours
[22] = system: U251; assay: Short-exposure killing of cancer cells (WST-8); assay type: cell-based, human; conditions: 10 μM
[23] = target: T1, human recombinant IL4R protein (Homo sapiens, UniProt P24394); assay: BIACORE binding to IL4R
T1 sequence (P24394 26-825): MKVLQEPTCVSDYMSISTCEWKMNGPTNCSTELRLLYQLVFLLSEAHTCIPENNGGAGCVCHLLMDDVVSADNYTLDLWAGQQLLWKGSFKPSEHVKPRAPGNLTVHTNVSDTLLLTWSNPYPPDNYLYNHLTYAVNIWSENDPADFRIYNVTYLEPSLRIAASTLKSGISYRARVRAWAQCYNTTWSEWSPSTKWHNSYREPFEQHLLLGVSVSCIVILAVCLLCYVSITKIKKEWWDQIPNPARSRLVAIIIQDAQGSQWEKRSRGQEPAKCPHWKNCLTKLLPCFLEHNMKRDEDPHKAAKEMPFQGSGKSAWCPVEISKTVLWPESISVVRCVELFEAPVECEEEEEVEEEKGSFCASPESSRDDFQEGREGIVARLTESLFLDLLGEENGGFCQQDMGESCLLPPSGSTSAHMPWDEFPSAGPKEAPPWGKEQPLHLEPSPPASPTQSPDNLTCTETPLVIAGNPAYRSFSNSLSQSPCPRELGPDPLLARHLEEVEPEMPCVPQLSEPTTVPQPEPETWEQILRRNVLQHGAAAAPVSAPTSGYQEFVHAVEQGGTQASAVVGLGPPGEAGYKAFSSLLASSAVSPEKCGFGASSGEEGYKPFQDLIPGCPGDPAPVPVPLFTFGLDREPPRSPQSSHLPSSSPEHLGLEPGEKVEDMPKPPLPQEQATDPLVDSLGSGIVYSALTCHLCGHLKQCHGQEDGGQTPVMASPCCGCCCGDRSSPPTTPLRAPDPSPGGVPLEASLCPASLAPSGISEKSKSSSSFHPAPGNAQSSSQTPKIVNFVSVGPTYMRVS

[24] = system: A172; assay: Cell viability assay (WST-8); assay type: cell-based; conditions: 72 h
[25] = system: BxPC-3; assay: Short-exposure killing of cancer cells (WST-8); assay type: cell-based, human; conditions: 10 μM
[26] = system: WI-38; conditions: 72 h
[27] = system: KCCT873; assay: Cell viability assay (WST-8); assay type: cell-based; conditions: 72 h
[28] = target: human recombinant NRP1 protein (Homo sapiens, UniProt O14786); assay: BIACORE binding to NRP1
Experimental: Based on the results of binding three-dimensional structure analysis of NRP1 and a Sema3A, a ligand thereof, partial peptide sequence which is important for binding (NYQWVPYQGRVPYPR (SEQ ID NO: 29)) was designed and chemically synthesized. By BIACORE analysis, binding affinity with human recombinant NRP1 protein was assessed.

[29] = target: EGFR (Homo sapiens, UniProt P00533); conditions: Li Z et al., FASEB J 2005; read-out: dissociation constant to EGFR; cited from earlier work
[30] = system: DU145; assay: Cell viability assay (WST-8); assay type: cell-based, human; conditions: 72 hours
[31] = listed as EB (H2R)-Lytic peptide

Sequence of human recombinant NRP1 protein (O14786 22-923): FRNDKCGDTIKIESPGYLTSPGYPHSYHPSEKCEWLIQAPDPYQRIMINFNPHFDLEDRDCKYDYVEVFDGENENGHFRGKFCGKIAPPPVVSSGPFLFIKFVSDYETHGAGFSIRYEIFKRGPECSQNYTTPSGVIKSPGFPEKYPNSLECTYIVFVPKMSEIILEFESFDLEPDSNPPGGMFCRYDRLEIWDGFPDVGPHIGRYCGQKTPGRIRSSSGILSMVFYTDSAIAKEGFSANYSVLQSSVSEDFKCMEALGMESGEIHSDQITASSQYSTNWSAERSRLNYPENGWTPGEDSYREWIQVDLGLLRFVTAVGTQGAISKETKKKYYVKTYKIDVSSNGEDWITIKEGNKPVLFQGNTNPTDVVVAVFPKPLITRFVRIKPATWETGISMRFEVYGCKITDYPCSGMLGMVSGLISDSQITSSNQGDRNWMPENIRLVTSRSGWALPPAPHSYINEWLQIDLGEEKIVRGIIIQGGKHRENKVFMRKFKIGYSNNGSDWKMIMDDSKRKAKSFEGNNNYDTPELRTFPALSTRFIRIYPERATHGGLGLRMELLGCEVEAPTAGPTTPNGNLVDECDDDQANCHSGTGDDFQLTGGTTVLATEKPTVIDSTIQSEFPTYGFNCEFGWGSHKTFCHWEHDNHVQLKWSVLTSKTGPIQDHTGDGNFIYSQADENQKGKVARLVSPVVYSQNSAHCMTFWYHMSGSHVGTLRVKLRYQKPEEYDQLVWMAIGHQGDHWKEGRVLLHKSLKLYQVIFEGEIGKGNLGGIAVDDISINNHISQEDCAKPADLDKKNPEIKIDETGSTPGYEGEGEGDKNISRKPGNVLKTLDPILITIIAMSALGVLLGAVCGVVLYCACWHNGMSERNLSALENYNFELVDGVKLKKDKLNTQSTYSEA

For `CC[C@H](C)[C@H](NC(=O)[C@@H](NC(=O)[C@H](CC(N)=O)NC(=O)[C@H](CCC(N)=O)NC(=O)[C@@H]1CCCN1C(=O)[C@@H](NC(=O)[C@H](Cc1ccc(O)cc1)NC(=O)CNC(=O)[C@H](Cc1ccc(O)cc1)NC(=O)[C@H](Cc1c[nH]c2ccccc12)NC(=O)[C@H](CCCNC(=N)N)NC(=O)[C@@H](N)Cc1ccc(O)cc1)[C@@H](C)O)C(C)C)C(=O)NCC(=O)NCC(=O)NCC(=O)N[C@@H](CCCCN)C(=O)N[C@@H](CC(C)C)C(=O)N[C@H](CC(C)C)C(=O)N[C@@H](CC(C)C)C(=O)N[C@@H](CCCCN)C(=O)N[C@H](CC(C)C)C(=O)N[C@@H](CC(C)C)C(=O)N[C@H](CCCCN)C(=O)N[C@H](CCCCN)C(=O)N[C@@H](CC(C)C)C(=O)N[C@@H](CC(C)C)C(=O)N[C@@H](CCCCN)C(=O)N[C@H](CC(C)C)C(=O)N[C@@H](CC(C)C)C(=O)N[C@@H](CCCCN)C(=O)N[C@@H](CCCCN)C(=O)N[C@@H](CCCCN)C(=O)O` [EB(H2R)-lytic peptide] (H-YRWYGYTPQNVIGGGKL[dL]LK[dL]L[dK][dK]LLK[dL]LKKK-OH; N-terminus and C-terminus assumed), the “IC50 Ratio EB-lytic peptide/EB(H2R)-lytic peptide” value ([1]; U251) was 1.4, the IC50 ([1]; U251 cancer cells, 72 hours, mean (Table 2)) was 8.4 µM and the IC50 [2] was > 20 µM. The “antitumor effect” value [3] was “in vivo antitumor effect higher; also recorded: higher antitumor effect in vivo; also recorded: sufficient antitumor effect”, the “Annexin V-positive expression (words)” value [4, 31] was “induces Annexin V-positive expression more strongly” and the “caspase 3,7 activation (words)” value [4, 31] was “induces caspase 3 & 7 activity more strongly”. The “Annexin V-positive expression (words)” value ([4]; listed as EB(H2R)-lytic) was “induced Annexin V-positive expression more strongly”, the “caspase 3,7 activation (words)” value ([4]; listed as EB(H2R)-lytic) was “induced caspase 3,7 activation more strongly” and the “number of cells with the membrane disintegrated (green) over time” value ([5]; 0 to 20 minutes) was “increases in shorter time”. The “percentage of influx of medium to the cells over time (words)” value [5, 31] was “more rapid”, the “percentage of influx of medium to the cells over time (words)” value ([5]; listed as EB(H2R)-Lytic peptide) was “more efficient” and the “IC50 Ratio EB-lytic peptide/EB(H2R)-lytic peptide” value ([6]; BT-20) was 3.4. The IC50 ([6]; BT-20 cancer cells, 72 hours, mean (Table 2)) was 1.9 µM, the IC50 [7] was > 20 µM and the “IC50 Ratio EB-lytic peptide/EB(H2R)-lytic peptide” value ([8]; H322) was 2.1. The “cell-killing effect compared with wild-type EGFR-binding chimeric peptide” value ([8]; H322, 72 hours) was “enhanced more”, the IC50 ([8]; H322 cancer cells, 72 hours, mean (Table 2)) was 3.2 µM and the “IC50 Ratio EB-lytic peptide/EB(H2R)-lytic peptide” value ([9]; LNCaP) was 2.1. The IC50 ([9]; LNCaP cancer cells, 72 hours, mean (Table 2)) was 4.8 µM, the “IC50 Ratio EB-lytic peptide/EB(H2R)-lytic peptide” value ([10]; SU.86.86) was 1.6 and the IC50 ([10]; SU.86.86 cancer cells, 72 hours, mean (Table 2)) was 7.4 µM. For the same compound, the “IC50 Ratio EB-lytic peptide/EB(H2R)-lytic peptide” value ([11]; BxPC-3) was 1.8 and the IC50 ([11]; BxPC-3 cancer cells, 72 hours, mean (Table 2)) was 6.6 µM.

In the case of `CC(C)C[C@H](NC(=O)[C@H](CCCCN)NC(=O)[C@@H](CC(C)C)NC(=O)[C@H](CC(C)C)NC(=O)[C@H](CCCCN)NC(=O)[C@H](CCCCN)NC(=O)[C@H](CC(C)C)NC(=O)[C@@H](CC(C)C)NC(=O)[C@@H](CCCCN)NC(=O)[C@H](CCCCN)NC(=O)[C@H](CC(C)C)NC(=O)[C@H](CC(C)C)NC(=O)[C@@H](CCCCN)NC(=O)[C@H](CC(C)C)NC(=O)[C@H](CC(C)C)NC(=O)CNC(=O)CNC(=O)[C@H](CCCNC(=N)N)NC(=O)[C@@H]1CCCN1C(=O)[C@H](Cc1ccc(O)cc1)NC(=O)[C@@H]1CCCN1C(=O)[C@@H](NC(=O)[C@H](CCCNC(=N)N)NC(=O)CN)C(C)C)C(=O)O` [Sema3A(aa371-377)-nLytic] (H-GRVPYPRGGLL[dK]LLK[dK][dL]LKKL[dL]KL-OH; N-terminus and C-terminus assumed), the IC50 [12] is reported as 9.2 µM, the IC50 ([13]; 48 h) is reported as > 50 µM and the IC50 [14] is reported as 14.5 µM. It also gave an IC50 [15] of 3.7 µM, an IC50 ([16]; 48 h) of 8.1 µM and an IC50 [17] of 7.9 µM. The IC50 ([6]; 48 h) was 11.4 µM, the IC50 ([10]; 48 h) was 8 µM and the IC50 ([18]; 48 h) was > 20 µM. For the same compound, the IC50 [19] was 14.1 µM and the IC50 ([11]; 48 h) was 14.7 µM.

In the case of “KDLLLHLKKLFREGQFN (IL13R binding peptide) [IL13R-binding peptide]”, the “binding affinity (BIACORE, words)” value [20] is reported as “binding affinity with human recombinant IL13R protein was observed”.

In the case of “KDLLLHLKKLFREGQFNGGGKLLLKLLKKLLKLLKKK (IL13-lyticL chimeric peptide)”, the “cell-killing effect compared with LyticL alone” value [21] is reported as “cell-killing effect was enhanced”, the “cell-killing effect compared with LyticL alone” value ([1]; U251, 72 hours) is reported as “cell-killing effect was enhanced” and the “contact time that sufficiently induces cell death” value [22] is reported as 10 min.

For “KQLIRFLKRLDRN (IL4R binding peptide) [IL4R-binding peptide]”, the “binding affinity (BIACORE, words)” value [23] was “binding affinity with human recombinant IL4R protein was observed”.

In the case of “KQLIRFLKRLDRNGGGKLLLKLLKKLLKLLKKK [IL4-LyticL]”, the IC50 [24] is reported as 3.8 ± 1.1 µM, the “contact time that sufficiently induces cell death” value [25] is reported as 10 min and the IC50 ([1]; 72 h) is reported as 3.7 ± 0.1 µM. The IC50 ([13]; PE normal cells, 72 hours, Mean ± SD (Table 4), read-out: IC50) was > 20 µM, the IC50 [26] was 9.8 ± 0.8 µM and the IC50 ([16]; 72 h) was 5.6 ± 0.5 µM. The “cell-killing effect compared with LyticL alone” value ([16]; MDA-MB-231, 72 hours) was “cell-killing effect was enhanced”, the IC50 [27] was 4.6 ± 0.1 µM and the IC50 ([18]; 72 h) was 7.2 ± 0.7 µM. The IC50 ([11]; 72 h) was 3.2 ± 0.4 µM and the “cell-killing effect compared with LyticL alone” value ([11]; BxPC-3, 72 hours) was “cell-killing effect was enhanced”.

For “NYQWVPYQGRVPYPR (NRP1 binding peptide) [NRP1-binding peptide]”, the “binding affinity (BIACORE, words)” value [28] was “binding affinity with human recombinant NRP1 protein was observed”.

In the case of YHWYGYTPQNVI [EB peptide], the Kd [29] is listed as 0.022 µM.

In the case of “YHWYGYTPQNVIGGGGGRLLRRLLRRLLRK (EGFbuf sequence)”, the “cell-killing effect to H322 compared with lung normal cell line MRC-5” value ([8]; 0 to 20 μM, 72 hours) is reported as “cell-killing sensitiveness to cancer cells was high”, the “cell-killing effect of chimeric peptide compared with lytic moiety alone” value ([8]; H322, 72 hours) is reported as “cell-killing effect was enhanced” and the “cell-killing effect compared with buf alone” value [30] is reported as “cell-killing effect was enhanced”.
